Legend:
[1] = molecular target: T1, Peroxisomal multifunctional enzyme type 2 (Homo sapiens) (UniProt P51659); test: Inhibition of hydroxysteroid-17-beta dehydrogenase 4
T1 sequence (whole entry): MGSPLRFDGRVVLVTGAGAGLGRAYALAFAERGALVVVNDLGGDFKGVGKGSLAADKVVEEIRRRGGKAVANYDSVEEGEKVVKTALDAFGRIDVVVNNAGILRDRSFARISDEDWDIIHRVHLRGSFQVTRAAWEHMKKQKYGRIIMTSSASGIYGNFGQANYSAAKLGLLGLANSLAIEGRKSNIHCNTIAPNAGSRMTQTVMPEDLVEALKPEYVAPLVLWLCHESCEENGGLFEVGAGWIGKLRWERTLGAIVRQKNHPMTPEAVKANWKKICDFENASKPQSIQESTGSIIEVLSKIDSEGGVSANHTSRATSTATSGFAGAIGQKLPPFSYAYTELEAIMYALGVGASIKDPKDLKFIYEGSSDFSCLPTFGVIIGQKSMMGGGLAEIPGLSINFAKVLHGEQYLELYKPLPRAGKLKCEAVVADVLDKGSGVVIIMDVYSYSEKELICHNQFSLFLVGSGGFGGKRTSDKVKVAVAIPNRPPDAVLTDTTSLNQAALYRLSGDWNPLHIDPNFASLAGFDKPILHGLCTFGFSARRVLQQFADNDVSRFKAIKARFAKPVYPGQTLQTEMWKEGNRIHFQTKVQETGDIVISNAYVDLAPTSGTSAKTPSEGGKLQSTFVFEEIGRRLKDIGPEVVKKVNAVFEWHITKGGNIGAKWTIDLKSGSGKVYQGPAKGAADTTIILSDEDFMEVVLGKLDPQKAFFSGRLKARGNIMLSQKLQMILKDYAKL

Cytochrome P450 3A4 = Cytochrome P450 3A4 (Homo sapiens, UniProt P08684); test: Inhibition of human CYP3A4; assay type: ADME
Sequence of Cytochrome P450 3A4 (P08684 whole entry): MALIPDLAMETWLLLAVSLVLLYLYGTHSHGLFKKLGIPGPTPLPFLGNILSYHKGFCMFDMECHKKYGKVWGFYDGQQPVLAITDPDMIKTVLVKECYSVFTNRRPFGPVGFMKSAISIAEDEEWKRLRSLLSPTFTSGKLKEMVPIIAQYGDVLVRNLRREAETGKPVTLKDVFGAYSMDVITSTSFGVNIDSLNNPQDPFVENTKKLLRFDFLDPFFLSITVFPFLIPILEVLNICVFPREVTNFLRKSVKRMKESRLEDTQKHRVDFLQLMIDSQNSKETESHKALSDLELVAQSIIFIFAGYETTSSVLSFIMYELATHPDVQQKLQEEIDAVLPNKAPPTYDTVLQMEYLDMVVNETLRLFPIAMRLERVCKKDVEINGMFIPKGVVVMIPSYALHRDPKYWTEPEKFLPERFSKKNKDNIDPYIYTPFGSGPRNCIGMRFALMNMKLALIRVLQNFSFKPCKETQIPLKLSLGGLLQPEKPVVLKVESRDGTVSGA

[2] = molecular target: Prothrombin (Homo sapiens) (UniProt P00734); test: Inhibition of human thrombin

| Structure (SMILES) | Activity (Cytochrome P450 3A4) | further results |
| --- | --- | --- |
| NC(=O)COc1ccc2c3c(c(=O)oc2c1)CCCCC3 |  | Activity [1]: 25 µM |
| CC(=O)C(C)Oc1ccc2c3c(c(=O)oc2c1)CCCCC3 (stereo not given) |  | Activity [1]: 25 µM |
| COc1ccc(CNc2ncnc3ccc(-c4ccc(N(C)C)cc4)cc23)c(OC)c1 | 4 µM |  |
| COc1ccc(CNc2ncncc2-c2ccccc2CN(C)C)c(OC)c1 | 398 µM |  |
| COc1ccc(C(=O)n2nc(-c3ccco3)nc2SC)cc1OC |  | Activity [2]: 204 nM |
| COc1ccccc1CNc1ncncc1-c1ccccc1Cl | 199 µM |  |
| COc1ccccc1CNc1ncnc2ccc(-c3cccc(C#N)c3)cc12 | 8 µM |  |
| COc1ccccc1CNc1ncnc2ccc(-c3ccccc3OC)cc12 | 6.3 µM |  |
| COc1ccc(CNc2ncncc2-c2ccc(N(C)C)cc2)c(OC)c1 | 199 µM |  |
| COc1ccc(C(=O)n2nc(-c3ccco3)nc2N)cc1 |  | Activity [2]: 828 nM |
| COc1ccccc1CNc1ncnc2ccc(-c3ccccc3CN(C)C)cc12 | 12.6 µM |  |
| COc1ccc(CNc2ncncc2-c2cccc(NS(C)(=O)=O)c2)c(OC)c1 | 251 µM |  |
| COc1ccccc1-c1cncnc1NCc1cccc(C)c1 | 100 µM |  |
| CN(C)c1ccc(-c2ccc3ncnc(NCc4ccccc4)c3c2)cc1 | 2.5 µM |  |
| COc1ccccc1-c1cncnc1NCc1ccccc1 | 251 µM |  |
| COc1ccc(CNc2ncnc3ccc(-c4ccccc4C#N)cc23)c(OC)c1 | 1 µM |  |
| COc1cccc(-c2ccc3ncnc(NCc4ccc(OC)cc4OC)c3c2)c1 | 2.5 µM |  |
| COc1ccccc1CNc1ncnc2ccc(-c3cccc(NS(C)(=O)=O)c3)cc12 | 3.2 µM |  |
| Nc1nc(-c2ccco2)nn1C(=O)c1ccc(Cl)cc1 |  | Activity [2]: 1460 nM |
| COc1ccccc1C(=O)n1nc(-c2ccco2)nc1N |  | Activity [2]: 6930 nM |
| Nc1nc(-c2ccco2)nn1C(=O)c1ccccc1Cl |  | Activity [2]: 14000 nM |
| Cc1cccc(CNc2ncncc2-c2ccccc2C(F)(F)F)c1 | 79 µM |  |
| COc1ccccc1CNc1ncncc1-c1cccc(NS(C)(=O)=O)c1 | 251 µM |  |
| COc1cccc(-c2cncnc2NCc2ccccc2OC)c1 | 501 µM |  |
| COc1ccccc1CNc1ncnc2ccc(-c3ccc(N(C)C)cc3)cc12 | 2 µM |  |
| CSc1nc(-c2ccco2)nn1C(=O)c1ccccc1 |  | Activity [2]: 82 nM |
| N#Cc1cccc(-c2cncnc2NCc2ccccc2)c1 | 1259 µM |  |
| COc1ccc(CNc2ncncc2-c2ccccc2C)c(OC)c1 | 398 µM |  |

| Structure (SMILES) | Activity (Cytochrome P450 3A4) | further results |
| --- | --- | --- |
| CSc1nc(-c2ccco2)nn1C(=O)c1ccc(C)cc1 |  | Activity [2]: 159 nM |
| COc1ccc(CNc2ncncc2-c2ccccc2OC)c(OC)c1 | 316 µM |  |
| Cc1cccc(CNc2ncncc2-c2ccccc2Cl)c1 | 199 µM |  |
| COc1cccc(-c2cncnc2NCc2ccccc2)c1 | 316 µM |  |
| COc1ccc(CNc2ncncc2-c2ccccc2C(F)(F)F)c(OC)c1 | 316 µM |  |
| CN(C)Cc1ccccc1-c1ccc2ncnc(NCc3ccccc3)c2c1 | 15.8 µM |  |
| CC(=O)COc1ccc2c3c(c(=O)oc2c1C)CCCCC3 |  | Activity [1]: 13 µM |
| Cc1cccc(CNc2ncncc2-c2ccccc2C)c1 | 398 µM |  |
| COc1cccc(-c2cncnc2NCc2ccc(OC)cc2OC)c1 | 501 µM |  |
| COc1ccccc1C(=O)n1nc(-c2ccco2)nc1SC |  | Activity [2]: 1 nM |
| Cc1ccccc1-c1cncnc1NCc1ccccc1 | 316 µM |  |
| COc1ccccc1CNc1ncncc1-c1ccccc1C(F)(F)F | 79 µM |  |
| COc1ccccc1CNc1ncnc2ccc(-c3ccccc3C#N)cc12 | 4 µM |  |
| COc1ccc(CNc2ncnc3ccc(-c4ccccc4CN(C)C)cc23)c(OC)c1 | 8 µM |  |
| COc1ccc(CNc2ncncc2-c2ccccc2OC)cc1 | 199 µM |  |
| COc1ccc(CNc2ncncc2-c2cccc(C#N)c2)c(OC)c1 | 316 µM |  |
| Cc1cccc(CNc2ncncc2-c2cccc(C#N)c2)c1 | 199 µM |  |
| COc1ccccc1-c1ccc2ncnc(NCc3ccccc3)c2c1 | 12.6 µM |  |
| Nc1nc(-c2ccco2)nn1C(=O)c1ccccc1 |  | Activity [2]: 926 nM |
| COc1ccc(C(=O)n2nc(-c3ccco3)nc2N)cc1OC |  | Activity [2]: 2230 nM |
| COc1ccc(CNc2ncnc3ccc(-c4cccc(C#N)c4)cc23)c(OC)c1 | 1.6 µM |  |
| Cc1cccc(CNc2ncnc3ccc(-c4ccccc4C#N)cc23)c1 | 1.2 µM |  |
| CS(=O)(=O)Nc1cccc(-c2cncnc2NCc2ccccc2)c1 | 631 µM |  |
| Cc1ccc(C(=O)n2nc(-c3ccco3)nc2N)cc1 |  | Activity [2]: 741 nM |
| COC(=O)C(C)Oc1ccc2c3c(c(=O)oc2c1)CCCCC3 (stereo not given) |  | Activity [1]: 32 µM |
| COc1ccc(CNc2ncnc3ccc(-c4ccccc4OC)cc23)c(OC)c1 | 2 µM |  |
| COc1ccc(CNc2ncnc3ccc(-c4cccc(NS(C)(=O)=O)c4)cc23)c(OC)c1 | 2 µM |  |

Second part, led by results:

| Activity (Cytochrome P450 3A4) | Structure (SMILES) | further results |
| --- | --- | --- |
| 2512 µM | CN(C)C(=O)c1ccc(-c2cncnc2NCc2ccccc2)cc1 |  |
| 501 µM | COc1ccc(CNc2ncncc2-c2ccc(C(=O)N(C)C)cc2)c(OC)c1 |  |
| 2 µM | Cc1cccc(CNc2ncnc3ccc(-c4ccc(C(=O)N(C)C)cc4)cc23)c1 |  |
| 2512 µM | COc1ccccc1CNc1ncncc1-c1ccc(C(=O)N(C)C)cc1 |  |
| 2.5 µM | COc1ccc(CNc2ncnc3ccc(-c4ccc(C(=O)N(C)C)cc4)cc23)c(OC)c1 |  |
| 398 µM | COc1cccc(-c2cncnc2NCc2cccc(C)c2)c1 |  |
| 10 µM | COc1ccccc1CNc1ncnc2ccc(-c3ccc(C(=O)N(C)C)cc3)cc12 |  |
| 631 µM | Cc1cccc(CNc2ncncc2-c2ccc(C(=O)N(C)C)cc2)c1 |  |
| 158 µM | Cc1cccc(CNc2ncncc2-c2cccc(NS(C)(=O)=O)c2)c1 |  |
| 15.8 µM | CN(C)C(=O)c1ccc(-c2ccc3ncnc(NCc4ccccc4)c3c2)cc1 |  |

From ChEMBL document CHEMBL1138506, “Exploration of structure-activity relationship determinants in analogue series” (J Med Chem, 2009)
